Data published in US9101567B2, “Suppression of cancer growth and metastasis using nordihydroguaiaretic acid derivatives with 7-hydroxystaurosporine” (The Johns Hopkins University, priority 2010, dated 2015).
Values joined by “and” are separate entries in the source; they are usually repeats but may differ in a detail not shown here. Identical values can stand only once.

Assays:
[1] = test system: OC24 human ovarian cancer cells; test: OC24 ovarian cancer-bearing nude mice: survival, ascites fluid, abdominal tumors; format: in vivo, nude mice (nu/nu); conditions: for survival rate at 45 days after treatment: OC24 tumor-bearing nude mice, i.v. 1 mg M4N and/or 88.4 μg UCN-01 per shot; for Tumor Weight: abdominal tumors of individual OC24 tumor-bearing mice; for Tumor Weight / Weight of the Ascites Fluid: at the time of death; for Weight of the Ascites Fluid: individual OC24 tumor-bearing mice, data compiled at 45 days after tumor inoculation
Description: (§1) T-cell deficient male nude mice (nu/nu) were obtained from Charles River Laboratories (Wilmington, Mass.). […] For drug combinations (M4N/etoposide, M4N/rapamycin, and M4N/UCN-01), etoposide, rapamycin, or UCN-01 powder was further added to M4N in CPE 25/30 to make a final concentration of M4N (10 mg/ml) respectively with etoposide (4 mg/ml), rapamycin (3.75 mg/ml), or UCN-01 ([…]) in CPE 25/30 formulation. These drugs were intravenously injected into the tail vein of mice at the daily dose of 0.1 ml per mouse. Therefore dosages of each injection were 1 mg/shot (for M4N), 0.4 mg/shot (for etoposide), 0.375 mg/shot (for rapamycin), and 88.4 μg/shot (for UCN-01). The drug injections were performed once every day; beginning at day 3 until day 31 after tumor inoculation for the combination treatment with either etoposide or rapamycin and until day 25 after tumor inoculation for the combination treatment with UCN-01. After this the drugs were injected once a week for etoposide/rapamycin combination treatment and once every three days until day 35 for UCN-01 combination treatment. Protocols used in this study were approved by the Institutional Animal Care and Use Committee at the Johns Hopkins University, Department of Biology.
(§2) OC24 cells growing subconfluently were collected into the tissue culture medium without fetal bovine serum and antibiotics. The cell concentration was adjusted by the same medium. The cell solution containing 5×10^4 cells was injected into the peritoneal cavity of each nude mouse at the day 0. The drug treatment started from day 3. For the estimation of the effect of the drug treatment, the volume of ascites fluids and of abdominal tumors was measured.
Next we examined if this combination treatment could improve the anticancer efficacy of M4N in animal experiments. In this experiment we used OC24 ovarian cancer-bearing nude mice as a model system. OC24 cells are very aggressive cancers and have the ability to kill essentially all the mice when only ten thousand cancer cells are inoculated intraperitoneally into a mouse. […] All the mice without any treatments died in less than 26 days after the tumor inoculation. Meanwhile certain percentages of the mice survived in the all treatment groups (M4N alone, UCN-01 alone, or M4N/UCN-01 combination) beyond 45 days after treatment (the time of preparation of the current manuscript). The survival rate at 45 days after treatment was 33%, 20%, and 42% for M4N alone, UCN-01 alone, or M4N/UCN-01 combination group respectively.
To further evaluate the anticancer efficacy of M4N/UCN-01 combination treatment, we next measured the volume of the ascites fluid and that of abdominal tumors. The ascites fluid was collected from the peritoneal cavity at the time of death of tumor-bearing mice. Abdominal tumors are usually located in the vicinity of the area where the tumors were inoculated by the needle. […] The data was compiled at 45 days after tumor inoculation. Therefore there were still several mice who still survived from tumor burden.

caspase-7 [2] = test: Enzymatic assay for caspase-7 in extracts of treated LNCaP cells; format: cell-based, human; conditions: extracts of LNCaP cells treated for 13 hrs
Description: The enzymatic assay specific for caspase-7 was performed using a CaspSELECT caspase-7 immunoassay kit (BioVision, Mountain View, Calif.). This assay is based on the […] assay with DEVD-afc. Since DEVD-afc can be a substrate for either caspase-3 or 7, only caspase-7 is selected from cell extracts by anti-caspase-7 antibody which is coated on microtiter plates. Briefly the microtiter plates were coated with anti-caspase-7 antibody overnight at 4 C and blocked with a blocking solution for 30 minutes at room temperature. The cell extracts were applied to the microtiter plates. After washing the microtiter plates, the substrate […] was added to the plates and incubated for about three hours. The fluorescence was measured by a microtiter plate fluorescence reader Infinite 200 (Tecan, Switzerland).
(§3) The efficacy of the combination treatment of M4N with three anticancer drugs, etoposide, rapamycin, and UCN-01 to induce cell death was examined for LNCaP human prostate cancer cells with TUNEL assay. We chose these anticancer drugs trying to diversify the mechanisms in which the anticancer drugs work (43-45). […] Additionally the effect of caspase-3 and 7 inhibitor, zDEVD-fmk on the cell death induced by the combination treatment was examined (FIG. 1E).

caspase-3 and 9 = test: Western blotting of cleaved caspase-3 and 9 in LNCaP cells; format: cell-based, human; conditions: 17 hrs, M4N 80 μM, etoposide 10 μM, rapamycin 10 μM, UCN-01 2 μM
Description: (§4) The sample volumes were adjusted by the total protein amount. Protein assay was performed by Bio-Rad Protein Assay (Bio-Rad Laboratories, Inc. Hercules, Calif.). The samples were resolved by the standard SDS-polyacrylamide gel electrophoresis and transferred to nitrocellulose membrane (Amersham Biosciences, Bjorkgatan, Sweden). The membranes were blocked with skim milk, and incubated with primary antibodies at 4° C. overnight and then with secondary antibody conjugated with horse radish peroxidase at room temperature for 2 hrs. The signals were detected by western blot chemiluminescence reagent plus (New England Nuclear Life Science Products, Boston, Mass.).
as §3

[3] = Body weight change in OC24 tumor-bearing mice; format: in vivo, nude mice (nu/nu); conditions: individual mice
Description: as §1, §2
Once the ascites fluid starts to accumulate in the peritoneal cavity, it sometimes constitutes a significant portion of the body weight.
The increase of the body weight of deceased mice at the time of the death over the initial weight was 37.8% (SD=18.9%, N=19) while the increase of the body weight of alive mice at days after tumor inoculation over the initial weight was 9.5% (SD=7.5%, N=6). The difference of two groups is statistically significant by t-test (0.2%). […] Therefore the body weight change can be used as an indicator to estimate the volume of ascites and thus overall condition of the mice. […] The body weight increased slightly after day 26. However it hasn't reached the peak weight achieved at day 22 (30.5 g). […] The pictures show the apparent decrease of the volume of abdominal area from day 22 to day 29 through day 26. This almost certainly indicated the reduction of ascites fluid. […] The observations depicted in FIGS. 8 B and 8C indicate that the combination treatment of M4N with UCN-01 can suppress tumor burden even after the tumor size has already reached to a certain extent. Discussion

caspase-7 [4] = test: Western blotting of caspase-7 cleavage in LNCaP cells; format: cell-based, human; conditions: 17 hrs, M4N 80 μM, etoposide 10 μM, rapamycin 10 μM, UCN-01 2 μM
Description: as §4, §3

## CN[C@@H]1C[C@H]2O[C@@](C)([C@@H]1OC)n1c3ccccc3c3c4c(c5c6ccccc6n2c5c31)C(=O)N[C@H]4O [UCN-01, 7-hydroxystaurosporine]
[1]
  survival rate at 45 days after treatment: 20%
  Tumor Weight: No Tumor (2×) and 360.5 mg and 87 mg
  Weight of the Ascites Fluid: 7.4 g and 15 g and Living and 14.3 g and 2.9 g
caspase-7 [2]
  caspase-7 activation (enzymatic activity): to some extent
caspase-3 and 9
  expression of cleaved caspase-3 and 9: great expression
[3]; Day No. 0 (10-Dec)
  Body weight: 22.8 grams and 22.1 grams and 23.4 grams and 21.6 grams and 19.6 grams and 20.6 grams
[3]; Day No. 2 (12-Dec)
  Body weight: 22.6 grams (2×) and 18.3 grams and 20.8 grams
[3]; Day No. 3 (13-Dec)
  Body weight: 23.4 grams and 21.8 grams and 35.7 grams and 30.5 grams and 22.9 grams and 21.9 Died due to injection & not the tumor (28th Dec) grams
[3]; Day No. 8 (18-Dec)
  Body weight: 39.5 grams and 35.9 grams and 26.2 grams
[3]; Day No. 12 (22-Dec)
  Body weight: 24.4 grams and 30.7 grams and 38.4 (6th Jan) grams and 27.3 grams
[3]; Day No. 22 (1-Jan)
  Body weight: 24.8 grams and 29.5 grams
[3]; Day No. 26 (5-Jan)
  Body weight: 25.5 grams
[3]; Day No. 29 (8-Jan)
  Body weight: 27.9 grams
[3]; Day No. 32 (11-Jan)
  Body weight: 27.6 grams
[3]; Day No. 33 (12-Jan)
  Body weight: 27.4 grams
[3]; Day No. 34 (13-Jan)
  Body weight: 27.5 grams
[3]; Day No. 35 (14-Jan)
  Body weight: 26.5 grams
[3]; Day No. 36 (15-Jan)
  Body weight: 27.2 grams
[3]; Day No. 37 (16-Jan)
  Body weight: 27.3 grams
[3]; Day No. 38 (17-Jan)
  Body weight: 27.1 grams
[3]; Day No. 39 (18-Jan)
  Body weight: 27.4 grams
[3]; Day No. 40 (19-Jan)
  Body weight: 27.4 grams
[3]; Day No. 41 (20-Jan)
  Body weight: 27.8 grams
[3]; Day No. 42 (21-Jan)
  Body weight: 26.7 grams
[3]; column head Day No. 18 (28-Dec)
  Body weight: 22.5 grams
caspase-7 [4]
  caspase-7 cleavage products (20 and 34 kDa): great amount

## COc1ccc(C[C@@H](C)[C@@H](C)Cc2ccc(OC)c(OC)c2)cc1OC [M4N, Tetra-O-methyl nordihyroguaiaretic acid]
[1]
  survival rate at 45 days after treatment: 33%
  Tumor Weight: 101.3 mg and <100 mg and 360.5 mg and 69 mg
  Weight of the Ascites Fluid: 4.4 g and Living (2×) and 7.8 g and 5.8 g and 16.1 g
caspase-7 [2]
  caspase-7 activation (enzymatic activity): only a small amount
caspase-3 and 9
  expression of cleaved caspase-3 and 9: didn't induce the cleavage
[3]; Day No. 0 (10-Dec)
  Body weight: 24.1 grams and 22.9 grams and 23.5 grams and 22.3 grams and 20 grams and 21.4 grams
[3]; Day No. 2 (12-Dec)
  Body weight: 22.3 grams and 20.8 grams and 22.9 grams and 21.5 grams and 19.1 grams and 20.9 grams
[3]; Day No. 3 (13-Dec)
  Body weight: 22.8 grams and 21.2 grams and 23.4 grams and 20.9 grams and 20.2 grams and 20.5 grams
[3]; Day No. 8 (18-Dec)
  Body weight: 30.1 grams and 25.8 (31st Dec) grams
[3]; Day No. 12 (22-Dec)
  Body weight: 23.9 grams and 21.9 grams and 27.7 grams (2×) and 29.8 (Euthanized on 1st Jan) grams
[3]; Day No. 22 (1-Jan)
  Body weight: 23.2 grams and 21.5 grams and 28 grams and 38.8 grams
[3]; Day No. 26 (5-Jan)
  Body weight: 24.1 grams and 22.5 grams and 28.1 grams
[3]; Day No. 29 (8-Jan)
  Body weight: 26.2 grams and 22.7 grams
[3]; Day No. 32 (11-Jan)
  Body weight: 25.5 grams and 22.5 grams
[3]; Day No. 33 (12-Jan)
  Body weight: 25.3 grams and 23.1 grams
[3]; Day No. 34 (13-Jan)
  Body weight: 25.3 grams and 22.9 grams
[3]; Day No. 35 (14-Jan)
  Body weight: 24.8 grams and 22 grams
[3]; Day No. 36 (15-Jan)
  Body weight: 25.7 grams and 22.4 grams
[3]; Day No. 37 (16-Jan)
  Body weight: 25.8 grams and 22.6 grams
[3]; Day No. 38 (17-Jan)
  Body weight: 25.9 grams and 22.9 grams
[3]; Day No. 39 (18-Jan)
  Body weight: 26.3 grams and 22.7 grams
[3]; Day No. 40 (19-Jan)
  Body weight: 26.4 grams and 22.9 grams
[3]; Day No. 41 (20-Jan)
  Body weight: 26.4 grams and 23.1 grams
[3]; Day No. 42 (21-Jan)
  Body weight: 25.3 grams and 23.2 grams
[3]; column head Day No. 25 (4-Jan)
  Body weight: 37.5 grams
[3]; column head Day No. 28 (7-Jan)
  Body weight: 27.9 grams
caspase-7 [4]
  caspase-7 cleavage products (20 and 34 kDa): small amount
